Columns and labels:
CYP2D6 = biological target: T1, CYP2D6 (Homo sapiens, UniProt P10635); assay: CYP enzyme inhibition test, Vivid CYP2D6 Cyan Screening Kit; type: in vitro ADME; conditions: for inhibitory effect on CYP2D6: conclusion in words
T1 construct: purchased
Method: (§1) Experimental Example 6: CYP Enzyme Inhibition Test CYP450 is the most important enzyme system in drug metabolism. The enzymes involved in metabolism interact with drugs, and the most important ones are CYP1A2, CYP2D6 and CYP3A4. P450-Glo™ CYP1A2 Screening System, Vivid® CYP2D6 Cyan Screening Kit and Vivid® CYP3A4 Red Screening Kit were used in this test, and the inhibitory effects of the compounds on CYP1A2, CYP2D6 and CYP3A4 were determined according to the instructions of the kit.

hERG potassium channel = hERG potassium channel (Homo sapiens, UniProt Q12809); assay: hERG test, Predictor hERG Fluorescence Polarization Assay Kit; type: binding; parameters: expressed in transfected cells; host or cells: HEK-293; conditions: test concentrations 1 μM and 10 μM
Excerpt: Experimental Example 5: hERG Test
1. Predictor™ hERG Fluorescence Polarization Assay Kit (ThermoFisher) was used to test the inhibitory effect of the compounds on hERG potassium channel according to the instructions of the kit.

CYP1A2 = biological target: T2, CYP1A2 (Homo sapiens, UniProt P05177); assay: CYP enzyme inhibition test, P450-Glo CYP1A2 Screening System; type: in vitro ADME; conditions: for inhibitory effect on CYP1A2: conclusion in words
T2 construct: purchased
T2 sequence (P05177 1-516): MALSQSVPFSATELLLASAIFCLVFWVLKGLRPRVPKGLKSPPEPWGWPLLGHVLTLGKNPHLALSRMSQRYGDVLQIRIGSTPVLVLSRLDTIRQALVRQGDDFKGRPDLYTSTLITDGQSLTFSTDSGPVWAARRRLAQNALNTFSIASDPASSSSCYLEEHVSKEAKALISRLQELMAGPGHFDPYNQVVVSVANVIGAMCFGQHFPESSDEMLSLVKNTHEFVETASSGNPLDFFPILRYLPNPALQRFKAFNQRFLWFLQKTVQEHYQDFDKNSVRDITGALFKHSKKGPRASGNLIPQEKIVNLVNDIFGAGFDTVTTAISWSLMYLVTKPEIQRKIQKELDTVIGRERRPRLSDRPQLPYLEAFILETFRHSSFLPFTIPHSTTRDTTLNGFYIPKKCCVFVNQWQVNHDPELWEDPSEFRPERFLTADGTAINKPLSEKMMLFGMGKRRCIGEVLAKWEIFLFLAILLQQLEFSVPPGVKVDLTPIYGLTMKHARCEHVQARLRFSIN
Method: as §1

hNLRP3 inflammasome = biological target: T3, hNLRP3 inflammasome (Homo sapiens, UniProt Q96P20); assay: Agonistic effect on the expression of IL-1β in THP-1 cells after PMA-induced differentiation (HTRF); type: cell-based; conditions: IL-1β level, PMA-differentiated THP-1 cells, 6 hours
T3 construct: endogenous in cells; host or cells: THP-1 cells, PMA-differentiated
Procedure, shortened: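 THP-1 cells differentiated with 1 μM PMA for 24 h, then replated at 1×10^5 cells/well in RPMI 1640 with 2% FBS. Compounds added for 6 h at 37 °C, 5% CO2. Supernatant IL-1β measured by HTRF; EC50 from four-parameter variable-slope fit.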

CYP3A4 = biological target: T4, CYP3A4 (Homo sapiens, UniProt P08684); assay: CYP enzyme inhibition test, Vivid CYP3A4 Red Screening Kit; type: in vitro ADME; conditions: for inhibitory effect on CYP3A4: conclusion in words
T4 construct: purchased
Method: as §1

T4 sequence (P08684 whole entry): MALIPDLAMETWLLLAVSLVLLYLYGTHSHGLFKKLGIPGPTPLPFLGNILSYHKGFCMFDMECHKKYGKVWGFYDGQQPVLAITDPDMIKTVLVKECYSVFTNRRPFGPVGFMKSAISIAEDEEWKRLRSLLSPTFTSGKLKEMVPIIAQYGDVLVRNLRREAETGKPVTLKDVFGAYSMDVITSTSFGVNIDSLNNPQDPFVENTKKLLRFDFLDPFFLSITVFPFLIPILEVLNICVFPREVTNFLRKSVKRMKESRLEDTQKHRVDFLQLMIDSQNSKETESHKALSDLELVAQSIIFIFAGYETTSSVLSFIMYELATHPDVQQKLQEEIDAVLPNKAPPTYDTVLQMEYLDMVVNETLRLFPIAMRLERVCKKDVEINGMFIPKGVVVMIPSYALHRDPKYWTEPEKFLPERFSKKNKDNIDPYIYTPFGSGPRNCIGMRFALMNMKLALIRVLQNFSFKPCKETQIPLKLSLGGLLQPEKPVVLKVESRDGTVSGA
T1 sequence (P10635 whole entry): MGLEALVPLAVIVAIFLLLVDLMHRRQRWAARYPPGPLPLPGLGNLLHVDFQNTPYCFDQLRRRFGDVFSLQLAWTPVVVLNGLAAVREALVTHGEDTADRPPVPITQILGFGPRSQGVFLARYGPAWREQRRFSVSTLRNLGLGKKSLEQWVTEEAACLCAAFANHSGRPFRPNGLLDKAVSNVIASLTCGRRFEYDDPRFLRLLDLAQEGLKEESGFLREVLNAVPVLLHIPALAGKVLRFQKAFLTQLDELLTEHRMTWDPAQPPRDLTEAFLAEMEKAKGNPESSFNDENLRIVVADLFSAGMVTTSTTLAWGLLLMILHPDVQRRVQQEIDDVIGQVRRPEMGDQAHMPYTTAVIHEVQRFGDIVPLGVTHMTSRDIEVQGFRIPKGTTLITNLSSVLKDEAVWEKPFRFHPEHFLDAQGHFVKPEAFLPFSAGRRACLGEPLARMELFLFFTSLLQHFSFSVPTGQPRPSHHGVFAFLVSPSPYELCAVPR
T3 sequence (Q96P20 whole entry): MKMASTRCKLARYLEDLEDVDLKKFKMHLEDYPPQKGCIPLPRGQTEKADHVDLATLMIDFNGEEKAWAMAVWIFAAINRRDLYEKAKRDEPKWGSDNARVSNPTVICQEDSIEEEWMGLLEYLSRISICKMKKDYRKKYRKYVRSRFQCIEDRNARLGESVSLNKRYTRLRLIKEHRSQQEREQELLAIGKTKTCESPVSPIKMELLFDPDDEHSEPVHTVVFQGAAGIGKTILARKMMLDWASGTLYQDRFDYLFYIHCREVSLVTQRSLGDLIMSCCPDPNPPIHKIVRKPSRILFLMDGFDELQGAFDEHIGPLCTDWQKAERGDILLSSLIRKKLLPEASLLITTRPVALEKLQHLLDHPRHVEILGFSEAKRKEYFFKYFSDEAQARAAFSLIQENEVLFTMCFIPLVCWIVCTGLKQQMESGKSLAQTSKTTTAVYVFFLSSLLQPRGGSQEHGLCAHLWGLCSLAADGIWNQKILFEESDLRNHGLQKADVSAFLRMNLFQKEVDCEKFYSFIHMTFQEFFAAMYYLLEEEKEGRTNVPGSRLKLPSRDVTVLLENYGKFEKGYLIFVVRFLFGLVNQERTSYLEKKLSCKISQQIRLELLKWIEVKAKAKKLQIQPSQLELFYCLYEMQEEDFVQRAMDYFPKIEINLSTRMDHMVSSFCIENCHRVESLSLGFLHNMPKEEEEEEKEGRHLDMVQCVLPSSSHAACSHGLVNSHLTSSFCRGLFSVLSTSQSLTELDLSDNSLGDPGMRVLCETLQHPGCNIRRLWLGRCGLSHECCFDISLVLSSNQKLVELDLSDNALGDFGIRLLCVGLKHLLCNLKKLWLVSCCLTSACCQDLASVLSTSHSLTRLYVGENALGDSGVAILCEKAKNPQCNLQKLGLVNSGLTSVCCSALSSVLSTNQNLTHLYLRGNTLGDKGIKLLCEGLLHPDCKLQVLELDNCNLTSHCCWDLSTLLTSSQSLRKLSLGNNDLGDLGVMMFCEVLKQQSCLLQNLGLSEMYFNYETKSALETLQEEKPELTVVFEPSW
Sequence of hERG potassium channel (Q12809 whole entry): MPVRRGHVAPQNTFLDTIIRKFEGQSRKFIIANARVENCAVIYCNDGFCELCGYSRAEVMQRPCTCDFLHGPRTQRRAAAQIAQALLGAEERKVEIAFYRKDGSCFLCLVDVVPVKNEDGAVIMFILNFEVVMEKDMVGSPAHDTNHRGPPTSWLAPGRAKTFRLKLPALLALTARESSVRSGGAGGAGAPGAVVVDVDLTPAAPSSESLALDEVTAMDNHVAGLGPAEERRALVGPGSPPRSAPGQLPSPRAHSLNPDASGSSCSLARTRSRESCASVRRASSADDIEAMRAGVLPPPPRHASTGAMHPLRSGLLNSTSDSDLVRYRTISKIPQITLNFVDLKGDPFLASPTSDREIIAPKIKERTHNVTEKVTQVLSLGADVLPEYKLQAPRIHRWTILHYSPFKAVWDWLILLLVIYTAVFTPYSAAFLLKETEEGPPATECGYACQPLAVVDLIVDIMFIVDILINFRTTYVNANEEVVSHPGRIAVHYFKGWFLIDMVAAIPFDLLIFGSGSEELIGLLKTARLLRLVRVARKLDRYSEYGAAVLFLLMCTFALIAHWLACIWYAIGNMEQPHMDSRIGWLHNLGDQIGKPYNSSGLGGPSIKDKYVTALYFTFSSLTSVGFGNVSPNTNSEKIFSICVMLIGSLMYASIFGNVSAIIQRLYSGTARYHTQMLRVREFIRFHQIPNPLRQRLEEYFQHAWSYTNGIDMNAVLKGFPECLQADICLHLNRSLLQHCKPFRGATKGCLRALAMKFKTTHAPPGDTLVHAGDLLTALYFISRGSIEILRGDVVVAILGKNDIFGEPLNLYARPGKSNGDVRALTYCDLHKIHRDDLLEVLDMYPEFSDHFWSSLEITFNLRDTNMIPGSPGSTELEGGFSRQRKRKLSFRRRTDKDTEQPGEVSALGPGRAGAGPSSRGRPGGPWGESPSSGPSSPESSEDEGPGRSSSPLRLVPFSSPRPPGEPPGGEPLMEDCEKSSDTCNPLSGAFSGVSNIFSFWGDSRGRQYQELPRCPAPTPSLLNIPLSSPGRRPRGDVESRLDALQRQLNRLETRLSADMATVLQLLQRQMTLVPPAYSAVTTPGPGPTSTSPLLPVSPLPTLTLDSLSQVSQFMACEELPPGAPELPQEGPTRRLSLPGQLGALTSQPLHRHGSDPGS

| SMILES | IC50 (CYP2D6) [µM] | inhibitory effect on CYP2D6 (CYP2D6) | IC50 (hERG potassium channel) [µM] | IC50 (CYP1A2) [µM] | inhibitory effect on CYP1A2 (CYP1A2) | EC50 (hNLRP3 inflammasome) [µM] | IC50 (CYP3A4) [µM] | inhibitory effect on CYP3A4 (CYP3A4) |
| --- | --- | --- | --- | --- | --- | --- | --- | --- |
| COC(C)(C)CNc1cc(N)nc2cc(-c3ccn[nH]3)sc12 [Compound 111, N^7-(2′-methoxy-2′-methylpropyl)-2-(1H-pyrazol-5-yl)thieno[3,2-b]pyridine-5,7-diamine] | > 10 | no apparent inhibitory effects | > 10 | > 10 | no apparent inhibitory effects | 0.23 | > 10 | no apparent inhibitory effects |
| Nc1cc(NC2COC2)c2sc(-c3ccn[nH]3)cc2n1 [Compound 112, N^7-(oxetan-3-yl)-2-(1H-pyrazol-5-yl)thieno[3,2-b]pyridine-5,7-diamine] | > 10 | no apparent inhibitory effects | > 10 | > 10 | no apparent inhibitory effects | 0.28 | > 10 | no apparent inhibitory effects |

— patent US20220056043A1, “NITROGEN-CONTAINING FUSED CYCLIC COMPOUND, PREPARATION METHOD THEREFOR AND USE THEREOF” (SICHUAN KELUN-BIOTECH BIOPHARMACEUTICAL CO., LTD., priority 2019, published 2022)
